From patent publication US9012403B2, “Peptides as active agents to stabilize biological barriers” (XiberScience GmbH, priority 2010, dated 2015)

Tested on: Ventilator-Induced Lung Injury (VILI)
Assay: Ventilator-induced lung injury (VILI) after LPS pre-challenge
Type: in vivo
Conditions: mice
Description: Experiments were performed with healthy C57BL/6 (aged 8-10 weeks, with weights ranging from 19-25 g). All interventions were performed according to the guide lines of AAALAC. All experiment were approved by the Ethic committee of the University of Amsterdam.
Mice were challenged with LPS (dosage: 50 μg per mouse) (or saline), via intranasal injection 2 h before initiation of mechanical ventilation, to induce lung injury.
XIB1-1b (or random peptide) was administered i.v. 10 min before start of mechanical ventilation (dosage: 4 mg/kg loading dose, followed administration i.v. injections 1 mg/kg/h.
A Y-tube connector with 1.0 mm outer diameter and 0.6 mm inner diameter was surgically inserted into the trachea under general anesthesia. Mice were placed in a supine position and connected to a ventilator. Mice were pressure-controlled ventilated with either an inspiratory pressure of 10 cm H2O (resulting in VT˜7.5 mL/kg; low VT, LVT) or an inspiratory pressure of 18 cm H2O (resulting in VT˜15 mL/kg; high VT, HVT). Positive end-expiratory pressure (PEEP) is set at 2 cm H2O with both MV-strategies. The fraction of inspired oxygen was kept at 0.5 throughout the experiment. The inspiration to expiration ratio was kept at 1:1 throughout the experiment.
BALF was obtained by instilling 3 times 0.5 mL aliquots of saline by a 22-gauge Abbocath-T catheter (Abbott, Sligo, Ireland) into the trachea. Approximately, 1.0 mL of BALF was retrieved per mouse and cell counts were determined using a hemacytometer (Beckman Coulter, Fullerton, Calif.). Subsequently, differential counts were done on cytospin preparations stained with a modified Giemsa stain, Diff-Quick (Dade Behring AG, Düdingen, Switzerland). Supernatant was stored at −80° C.
Total protein levels in BALF are determined using a Bradford Protein Assay Kit (OZ Biosciences, Marseille, France) according to manufacturers' instructions with bovine serum albumin as standard. Mouse IgM was determined by ELISA by using anti-Mouse IgM sensitized 96-strip micro-well plates according to manufacturers' instructions (IMMUNO-TEK kit from ZeptoMetrix).

[1] = LPS + high tidal volume ventilation (LPS-HTV), i.v. 4 mg/kg loading, then 1 mg/kg/h
[2] = LPS + low tidal volume ventilation (LPS+LTV), compared to scrambled peptide
[3] = LPS + low tidal volume ventilation (LPS+LTV), protocol caused no pronounced increase

GRRPLGGISGG (/note=“Description of artificial sequence cingulin-derived peptide XIB1-b”)
IgM content in the BALF [1]: significant decrease | neutrophil count in the BALF [1]: significant decrease | total cell count in the BALF [1]: significant decrease | total protein content in the BALF [1]: significant decrease | neutrophil counts in the BALF [2]: significantly reduced | total cell counts in the BALF [2]: significantly reduced | IgM content in the BALF [3]: no effect | total protein content in the BALF [3]: no effect
